Data as given in patent US20160000762A1, “IMPROVING COGNITIVE FUNCTION” (THE REGENTS OF THE UNIVERSITY OF CALIFORNIA, priority 2013, published 2016).

Assays:
APP = target: T1, APP (Rattus norvegicus, UniProt P08592); assay: Cell surface biotinylation, primary cortical neurons; assay type: cell-based; conditions: 5 μM, 24 h
T1 construct: BTA-EG4 increased endogenous cell surface APP levels in primary cortical neurons; endogenous in cells; host or cells: primary cortical neurons
Experimental: Cell surface biotinylation. COS7 cells were transiently transfected with APP for 24 hr in OPTI-MEM® containing 10% fetal bovine serum, and then treated with BTA-EG4 or control for 24 hr. After 24 hr, surface proteins were biotin labeled, immobilized with NeutrAvidin™ Gel and incubated 1 h with SDS-PAGE sample buffer, including 50 mM DTT, as described previously (Minami et al., 2010). Eluates were analyzed for APP by immunoblotting.
It is well known that the majority of a-secretase activity occurs on the cell surface, while β- and γ-secretase activity occurs primarily in the early and late endosomes (Huse et al., 2000; Reiss et al., 2006). Thus, if APP is present at the cell's surface, it is preferentially cleaved by α-secretase, resulting in decreased Aβ production. Therefore, we examined whether BTA-EG4 regulates cell surface expression of APP. To test this initially, COS7 cells were transfected with human APP and treated with BTA-EG4 (5 μM) or control (10% DMSO) for 24 h. […] Furthermore, BTA-EG4 increased endogenous cell surface APP levels in primary cortical neurons following 24 h of BTA-EG4 (5 μM) treatment compared with control (10% DMSO) treatment (FIG. 1I). In an alternative approach to examine the effect of BTA-EG4 on cell surface APP expression, we conducted live cell-surface immunostaining in primary hippocampal neurons.

CA1 pyramidal neurons = assay: Whole cell recordings (mEPSC, AMPA/NMDA) in CA1 pyramidal neurons of injected mice; assay type: in vivo; conditions: 30 mg/kg i.p., 2 weeks
Experimental: Electrophysiology. Transverse [for Schaffer collateral (SC) input studies] or horizontal [for temporammonic (TA) input studies] hippocampal slices (400-μm thick) were prepared from adult mice. Slices were made using ice-cold dissection buffer (in mM: 212.7 sucrose, 2.6KCl, 1.23NaH2PO4, 10 dextrose, 3MgCl2 and 1CaCl2; 5% CO2/95% O2), and recordings were done in a submersion-type chamber perfused with artificial cerebrospinal fluid (ACSF, in mM: 124NaCl, 5KCl, 1.25NaH2PO4, 26NaHCO3, 10 dextrose, 1.5MgCl2, and 2.5CaCl2; 5% CO2/95% O2, 29.5-30.5° C., 2 ml/min). For field potential recordings, synaptic responses were evoked using 0.2 ms duration pulses delivered through a bipolar glass stimulating electrode at 0.0333 Hz. A train of TBS consisted of a burst of 4 pulses at 100 Hz repeated 10 times at 5 Hz. For 4× TBS, 4 trains of TBS were given at 10 sec inter-train-intervals. […] Recording was initiated 2-3 min after break-in, and each cell was recorded for 10-15 min to collect enough mEPSCs for analysis. […] Cells were held at −70 mV, and the recorded mEPSC data were digitized at 10 kHz with a data acquisition board (National Instruments, Austin, Tex.) and acquired through custom-made programs using the Igor Pro software (WaveMetrics, Lake Oswego, Oreg.). […] Only about 4% of the total recorded cells (at most 1 cell per experimental group) were excluded due to negative correlation between mEPSC rise and amplitude. One hundred consecutive mEPSCs that met the rise time criteria were analyzed from each cell. AMPAR- and NMDAR-mediated currents were measured at −70 and +40 mV, respectively. AMPAR mediated EPSC amplitudes were measured at the peak of the current at −70 mV. NMDAR mediated EPSC amplitudes were measured 100 ms after the stimulation artifact. […]
To verify that the increase in dendritic spine density and synaptic proteins reflects an increase in functional synapses, we measured miniature excitatory postsynaptic currents (mEPSCs) from CA1 neurons in hippocampal slices following in vivo administration of BTA-EG4 (30 mg/kg, i.p.) for 2 weeks.

[1] = tested on: insulin-degrading enzyme (IDE), neprilysin (NPE); assay: Levels of Aβ degradation enzymes (data not shown)
[2] = Morris water maze, wild-type mice; assay type: in vivo, wild-type (B6) mice
From the text: Morris water maze. To examine the effects of BTA-EG4 on cognitive performance, we injected wild-type (B6) mice with BTA-EG4 daily for one week, and then began behavior testing. We continued daily injections for another week, for a total treatment course of two weeks. The Morris water maze task included training mice to locate a submerged, hidden platform using extramaze visuospatial cues. This system consists of a large, white circular pool with a Plexiglas platform painted white and submerged below the surface of the water, made opaque by the addition of white non-toxic paint. During training, the platform was hidden 14 inches from the side wall in one quadrant of the maze. The animals were gently placed at random into one of the four quadrants, separated by 90°, and facing the wall. The time required (latency) to locate the hidden platform was recorded by a blinded observer and tracked using TOPSCAN, and was limited to 90 sec. Animals failing to find the platform within 90 sec were assisted to the platform. Animals were allowed to remain on the platform for 15 sec on the first trial and 10 sec on subsequent trials. 24 hrs after the final learning trial, a probe trial of 90 sec was given. We recorded the percentage of time spent in the quadrant where the platform was previously located. As a control experiment, we tested motor impairment or visual discriminative ability. The animals were required to locate a clearly visible black platform (placed in a different location), raised above the water surface, at least 12 hrs after the last trial.

[3] = Tolerability of daily i.p. injections with necropsy; assay type: in vivo, wild-type mice; conditions: ≦50 mg/kg i.p. daily, 16 days
[4] = 30 mg/kg i.p., probe trial day 5

T1 sequence (P08592 18-770): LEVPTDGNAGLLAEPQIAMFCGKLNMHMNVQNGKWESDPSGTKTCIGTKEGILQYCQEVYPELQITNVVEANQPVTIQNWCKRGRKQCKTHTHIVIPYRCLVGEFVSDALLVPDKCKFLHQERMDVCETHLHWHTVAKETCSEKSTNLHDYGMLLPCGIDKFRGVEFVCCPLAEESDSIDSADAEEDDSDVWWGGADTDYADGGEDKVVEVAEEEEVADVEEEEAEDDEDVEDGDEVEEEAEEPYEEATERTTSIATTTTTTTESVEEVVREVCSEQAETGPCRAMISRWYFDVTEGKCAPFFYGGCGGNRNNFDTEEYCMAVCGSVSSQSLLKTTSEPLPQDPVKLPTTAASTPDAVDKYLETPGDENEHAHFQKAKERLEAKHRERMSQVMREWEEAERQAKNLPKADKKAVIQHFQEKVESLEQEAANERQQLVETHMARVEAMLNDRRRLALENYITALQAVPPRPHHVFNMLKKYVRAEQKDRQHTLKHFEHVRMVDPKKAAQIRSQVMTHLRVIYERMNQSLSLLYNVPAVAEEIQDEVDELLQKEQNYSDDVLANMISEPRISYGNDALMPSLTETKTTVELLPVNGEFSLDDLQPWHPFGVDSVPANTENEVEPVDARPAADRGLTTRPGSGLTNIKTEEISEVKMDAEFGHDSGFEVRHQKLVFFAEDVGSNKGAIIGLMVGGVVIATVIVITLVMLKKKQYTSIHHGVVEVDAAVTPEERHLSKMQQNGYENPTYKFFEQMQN

**Q.** For BTA-EG4, which “endogenous cell surface APP levels” value (APP) is on record?
**A.** The value was “increased”.

**Q.** And the AMPAR/NMDAR ratio (CA1 pyramidal neurons)?
**A.** Its AMPAR/NMDAR ratio is “did not observe a change”.

**Q.** What about the “average mEPSC amplitude” value (CA1 pyramidal neurons) of the same substance?
**A.** Its value is “no significant difference”.

**Q.** And the “frequency of mEPSCs” value (CA1 pyramidal neurons)?
**A.** The value was “significantly increased”.

**Q.** What about the “levels of Aβ degradation enzymes (IDE, NPE)” value [1] of the same substance?
**A.** Its value is “did not alter”.

**Q.** And the “escape latency during training” value ([2]; 30 mg/kg i.p. daily)?
**A.** Its value is “significantly reduced”.

**Q.** And the “rate of platform crossing” value [2, 4]?
**A.** The value was “significantly higher rate”.

**Q.** And the “time spent in the target quadrant” value [2, 4]?
**A.** Its value is “spent more time”.

**Q.** What about the “path length to the escape platform” value ([2]; 30 mg/kg i.p., training trials) of the same substance?
**A.** The value was “no difference”.

**Q.** And the swim speed ([2]; 30 mg/kg i.p., CTRL=117±3.1 mm/s, p<0.01)?
**A.** The swim speed was 130±3.6 mm/s.

**Q.** And the necropsy findings [3]?
**A.** Its necropsy findings is “no adverse effects on major organs”.

**Q.** And the “tolerability of daily injections” value [3]?
**A.** Its value is “well tolerated”.
